According to PubChem BioAssay (NCI):
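Cultured in 96-well plates, cells were exposed to test compound for 48 hours across five concentrations. Definition used: TGI = concentration required for complete inhibition of growth.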

Columns and labels:
Test in all cases: inhibition of tumour cell growth, NCI panel, 48 h
[1] = system: OVCAR-8 ovarian
[2] = system: SF-268 CNS
[3] = system: PC-3 prostate
[4] = system: HCT-15 colon
[5] = system: MDA-N
[6] = system: LOX IMVI melanoma
[7] = system: SK-MEL-5 melanoma
[8] = system: ACHN renal
[9] = system: SNB-75 CNS
[10] = system: MOLT-4 leukemia
[11] = system: OVCAR-3 ovarian
[12] = system: CAKI-1 renal
[13] = system: HS 578T breast
[14] = system: NCI-H460 lung
[15] = system: UACC-257 melanoma
[16] = system: MDA-MB-435
[17] = system: OVCAR-5 ovarian
[18] = system: NCI-H522 lung
[19] = system: T-47D breast
[20] = system: CCRF-CEM leukemia
[21] = system: K-562 leukemia
[22] = system: SK-MEL-2 melanoma
[23] = system: MCF7 breast
[24] = system: HT29 colon
[25] = system: U251 CNS
[26] = system: SK-MEL-28 melanoma
[27] = system: SN12C renal
[28] = system: HL-60(TB) leukemia
[29] = system: HCT-116 colon
[30] = system: HCC-2998 colon
[31] = system: NCI-H23 lung
[32] = system: SF-539 CNS
[33] = system: OVCAR-4 ovarian
[34] = system: HOP-92 NSCLC
[35] = system: SK-OV-3 ovarian
[36] = system: 786-0 renal
[37] = system: A498 renal
[38] = system: RXF 393 renal
[39] = system: UO-31 renal
[40] = system: SW-620 colon
[41] = system: BT-549 breast
[42] = system: DU-145 prostate
[43] = system: MDA-MB-231 breast
[44] = system: RPMI-8226 leukemia
[45] = system: NCI/ADR-RES ovarian
[46] = system: IGROV1 ovarian
[47] = system: A549 NSCLC
[48] = system: UACC-62 melanoma
[49] = system: KM12 colon
[50] = system: MALME-3M melanoma
[51] = system: SF-295 CNS
[52] = system: M14 melanoma
[53] = system: NCI-H226 lung
[54] = system: EKVX NSCLC
[55] = system: TK-10 renal
[56] = system: SNB-19 CNS
[57] = system: HOP-62 NSCLC
[58] = system: COLO 205 colon

`CN(C)c1ccc(/C=C(\NC(=O)c2ccccc2)C(=O)NC(Cc2c[nH]c3ccccc23)C(=O)O)cc1` (stereo not given) was tested, and the TGI [1] was > 100 µM, the TGI [2] was > 100 µM and the TGI [3] was > 100 µM. The TGI [4] was > 100 µM, the TGI [5] was > 100 µM and the TGI [6] was > 100 µM. The TGI [7] was > 100 µM, the TGI [8] was > 100 µM and the TGI [9] was 33.1 µM. For the same compound, the TGI [10] was > 100 µM, the TGI [11] was > 100 µM and the TGI [12] was > 100 µM. For the same compound, the TGI [13] was > 100 µM, the TGI [14] was > 100 µM and the TGI [15] was > 100 µM. The TGI [16] was > 100 µM, the TGI [17] was > 100 µM and the TGI [18] was > 100 µM. The TGI [19] was > 100 µM, the TGI [20] was > 100 µM and the TGI [21] was > 100 µM. For the same compound, the TGI [22] was > 100 µM, the TGI [23] was > 100 µM and the TGI [24] was > 100 µM. The TGI [25] was > 100 µM, the TGI [26] was > 100 µM and the TGI [27] was > 100 µM. For the same compound, the TGI [28] was > 100 µM, the TGI [29] was > 100 µM and the TGI [30] was > 100 µM. The TGI [31] was > 100 µM, the TGI [32] was > 100 µM and the TGI [33] was > 100 µM. For the same compound, the TGI [34] was > 100 µM, the TGI [35] was > 100 µM and the TGI [36] was > 100 µM. For the same compound, the TGI [37] was > 100 µM, the TGI [38] was > 100 µM and the TGI [39] was > 100 µM. For the same compound, the TGI [40] was > 100 µM, the TGI [41] was > 100 µM and the TGI [42] was > 100 µM. For the same compound, the TGI [43] was > 100 µM, the TGI [44] was > 100 µM and the TGI [45] was > 100 µM. The TGI [46] was > 100 µM, the TGI [47] was > 100 µM and the TGI [48] was > 100 µM. The TGI [49] was > 100 µM, the TGI [50] was > 100 µM and the TGI [51] was > 100 µM. For the same compound, the TGI [52] was > 100 µM, the TGI [53] was > 100 µM and the TGI [54] was > 100 µM. For the same compound, the TGI [55] was > 100 µM, the TGI [56] was > 100 µM and the TGI [57] was > 100 µM. The TGI [58] was > 100 µM.

In the case of `[N-]=[N+]=Nc1ccc2c(c1)Sc1ccccc1N2CCCCN1CCN(C(=O)CCNC(=O)Cc2ccc(C(=O)c3ccccc3)cc2)CC1`, the TGI [1] is reported as > 100 µM, the TGI [2] is reported as 16 µM and the TGI [3] is reported as > 21.3 µM. The TGI [4] was 8.52 µM, the TGI [5] was 14.1 µM and the TGI [6] was 5.17 µM. For the same compound, the TGI [7] was 4.39 µM, the TGI [8] was > 60.5 µM and the TGI [9] was > 24.4 µM. For the same compound, the TGI [10] was 5.86 µM, the TGI [11] was 18.3 µM and the TGI [12] was > 100 µM. The TGI [13] was > 100 µM, the TGI [14] was > 23.3 µM and the TGI [15] was 9.96 µM. For the same compound, the TGI [16] was 6.44 µM, the TGI [17] was 51.4 µM and the TGI [18] was 7.51 µM. The TGI [19] was 28.7 µM, the TGI [20] was 8.26 µM and the TGI [22] was 8.97 µM. For the same compound, the TGI [23] was 5.78 µM, the TGI [24] was 4.67 µM and the TGI [25] was > 24.6 µM. The TGI [26] was 9.89 µM, the TGI [27] was > 33 µM and the TGI [28] was 5.57 µM. The TGI [29] was 18.9 µM, the TGI [30] was 6.08 µM and the TGI [31] was > 44 µM. For the same compound, the TGI [32] was 17.2 µM, the TGI [33] was > 25.6 µM and the TGI [34] was > 29.2 µM. The TGI [35] was > 100 µM, the TGI [36] was 22.9 µM and the TGI [37] was > 35.9 µM. For the same compound, the TGI [38] was > 100 µM, the TGI [39] was > 100 µM and the TGI [40] was > 39.3 µM. For the same compound, the TGI [41] was 10.6 µM, the TGI [42] was > 100 µM and the TGI [43] was 16.9 µM. For the same compound, the TGI [44] was 4.87 µM, the TGI [45] was > 39.1 µM and the TGI [46] was > 35.5 µM. For the same compound, the TGI [47] was > 100 µM, the TGI [48] was 19.6 µM and the TGI [49] was 23 µM. It also gave a TGI [50] of 10.7 µM, a TGI [51] of 10.1 µM and a TGI [52] of 11.8 µM. The TGI [53] was > 100 µM, the TGI [54] was > 100 µM and the TGI [55] was > 75.6 µM. For the same compound, the TGI [56] was > 56.4 µM, the TGI [57] was > 100 µM and the TGI [58] was 8.92 µM.
